In publication PMC4980009, “Epitope Mapping of a Monoclonal Antibody Directed against Neisserial Heparin Binding Antigen Using Next Generation Sequencing of Antigen-Specific Libraries” (PLoS ONE, 2016):

What was measured:
mAb 31E10/E7 [1] = assay: Solution-equilibrium ELISA (Friguet) KD of NHBA fragment–mAb complexes; format: binding, murine; conditions: equilibrium in solution, antigen 7 to 480 nM with mAb 0.7 nM, -^§ = No interaction was detected under the tested conditions, read-out: KD ± SD (no interaction detected)
Text: Next, we sought to directly compare, for their ability to reconstitute the epitope recognized by mAb 31E10/E7, the peptides identified by peptide scanning with the fragments previously identified by PROFILER. To this end, we selected Peptide 5 (Pep-5, spanning P95-E109; Fig 5A) and FrII (D91-A128; Fig 2A) as representatives of the two categories. First, we measured the ability of the fragments to compete with the whole antigen (NHBA-NUbp-His) for binding to mAb 31E10/E7 in the ELISA inhibition assay described above. […] To further analyze this, we measured the affinities of the NHBA fragments for mAb 31E10/E7 using an ELISA assay that can provide reliable estimates of the equilibrium dissociation constant (KD) of antigen-antibody complexes in solution [20].
KD values of complexes between mAb 31E10/E7 and NHBA fragments at equilibrium in solution were measured using the ELISA test of Friguet et al, exactly as described by Heinrich et al.. […] Under these conditions, absorbance is proportional to the concentration of free mAb 31E10/E7 added to each well. The results for each antigen were analyzed using the plot described by Friguet et al ([19]; S2 Fig), which provides a KD value for the complex in solution. Results were expressed as means and standard deviations of the 4 KD values determined for each of the 4 antigen concentrations used to coat the wells.

mAb 31E10/E7 [2] = assay: Inhibition ELISA of mAb 31E10/E7 binding to NHBA-NUbp-His; set-up: species or system murine
Text: We sought to verify whether the antigenic fragments identified by phage display analysis reacted against the 31E10/E7 mAb in a molecular context other than capsid proteins and how these binding activities compared to that of the whole antigen molecule. For this analysis, FrI and FrII were produced as GST fusion proteins and probed against the 31E10/E7 mAb in an inhibition ELISA assay. A third fragment, FrIII, encompassing residues F324-D391, was also produced in fusion with GST and used as a negative control. In the ELISA inhibition experiments, the NHBA-NUbp-His fusion protein was used as coating antigen and reactivity against 31E10/E7 was measured in the presence and in the absence of GST-FrI, GST-FrII and GST-FrIII.
The immunoreactivity of NHBA antigenic fragments against the 31E10/E7 mAb was tested using a previously described ELISA inhibition assay. Briefly, the 31E10/E7 mAb (1 μg/ml) was preincubated with micromolar concentrations of competitors (represented by the indicated NHBA fragments or by the entire antigen fused to an histidine tail) prior to the addition to microtiter wells sensitized with the whole fusion antigen (NHBA-NUbp fused to an histidine tail or NHBA-NUbp-His, 5 μg/ml). […] Percent inhibition was calculated by comparing the absorbance value of wells with and without the inhibitors.

## TPAS
mAb 31E10/E7 [1]
  Kd: > 480 nM
mAb 31E10/E7 [2]; NHBA-NUbp-His coated 5 μg/ml, mAb 1 μg/ml, Fig 3B, three independent experiments
  competition with the whole antigen for binding to mAb 31E10/E7: but not the TPAS tetrapeptide
mAb 31E10/E7 [2]; even at high concentrations (Fig 3B)
  binding to the mAb: unable to bind the mAb
